Test results reported in publication PMC5688144, “Assay interference and off-target liabilities of reported histone acetyltransferase inhibitors” (Nature Communications, 2017).
“Also recorded” adds a separate entry of the source.

Experiments:
p300/CBP = settings: cited from earlier work
AmpC β-lactamase = molecular target: T1, AmpC β-lactamase (Escherichia coli, UniProt P00811); assay: biochemical; parameters: species or system E. coli; settings: 10 μM compound; for AmpC aggregation counter-screen: ± 0.01% Triton X-100
T1 construct: Recombinant E. coli AmpC (amino acids 20–377); purchased MyBioSource.com
Procedure: Selected compounds were assessed for aggregation using a modified AmpC β-lactamase counter-screen[24],[32],[64]. Recombinant E. coli AmpC (amino acids 20–377) was obtained from MyBioSource.com. Testing was performed in ALARM NMR buffer (25 mM sodium phosphate, pH 7.0) in flat-bottom UV-transparent 96-well microplates in 150 μL reaction volumes. Compounds were tested in triplicate at 10 μM final concentrations in either the presence or absence of freshly-prepared 0.01% Triton X-100 (v/v). Final concentration of DMSO was 2.0% (v/v). Compounds were incubated with ~5 nM AmpC in 147 μL reaction buffer for 5 min at RT, followed by the addition of 3 μL of nitrocefin substrate (100 μM final concentration). Reaction solutions were gently mixed by pipetting up and down three times using a multichannel pipette. […] Percent activity was normalized to DMSO-only controls. Fluconazole and lidocaine were included as negative aggregation control compounds. Rottlerin was included as a positive aggregation control compound. Aggregators were defined as compounds with significant detergent-dependent changes in AmpC activity (t-test, adjusted P-value <0.05; mean differences greater than 30%). Activators were defined as compounds that increased AmpC enzymatic activity.

[1] = Fluorescence quenching counter-screen; assay type: physicochemical; settings: 10 μM fluorophore; 32 nM-100 μM compound
Procedure: Selected test compounds were assessed for fluorescence quenching using adaptions of previously published procedures[9],[24]. Briefly, test compounds and individual fluorophore standards were incubated together. The fluorescence intensity of these mixtures was compared to the fluorescence intensity of the same fluorophore standards minus test compounds. Each microplate contained positive control columns (DMSO plus fixed concentration of a single fluorophore), negative control columns (DMSO), and experimental wells (test compounds plus fixed concentration of a single fluorophore). […] Final concentration of DMSO was constant at 2.0% (v/v). […] All measurements were performed in ALARM NMR buffer (25 mM sodium phosphate, pH 7.0) at 25 °C. Aliquots of 20 μL buffer were dispensed into microplate wells via ThermoFisher Multidrop dispenser. Microplates were shaken for 1 min on a plate shaker, centrifuged briefly for 1 min at 1000×g, then allowed to incubate at RT for 10 min before measuring fluorescence intensity on a SpectraMax M3 plate reader under reduced lighting. Instrument settings for each fluorophore were unchanged from the aforementioned autofluorescence studies.

human La antigen = molecular target: T2, human La antigen (Homo sapiens, UniProt P05455, T302N); assay: ALARM NMR; assay type: binding; settings: 400 μM compound
T2 construct: amino acids 100–324 of the human La antigen (plus T302N mutation); 6xHis (N); 6xHis (C); host or cells: Escherichia coli Rosetta cells
T2 sequence (P05455 100-324 T302N): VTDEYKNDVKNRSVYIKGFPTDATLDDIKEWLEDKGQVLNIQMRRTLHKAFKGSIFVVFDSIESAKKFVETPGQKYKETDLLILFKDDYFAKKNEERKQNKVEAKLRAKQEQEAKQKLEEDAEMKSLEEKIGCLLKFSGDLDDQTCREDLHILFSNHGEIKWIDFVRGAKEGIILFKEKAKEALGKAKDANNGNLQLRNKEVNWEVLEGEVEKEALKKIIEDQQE
Text: The gene encoding amino acids 100–324 of the human La antigen (plus T302N mutation) was cloned into pET28b + vector (Novagen) with both an N- and C-terminal 6xHis tag (addgene.org, plasmid ID 90209). The sequence identity of the ALARM NMR plasmid construct was verified by Sanger sequencing of the transgene region and next-generation sequencing of the whole plasmid.
Plasmid was transformed into Escherichia coli Rosetta cells (Novagen) and cultured in M9 minimal media. The La antigen was labeled by adding ^13C-labeled amino acid precursors ([3-^13C]-α-ketobutyrate and [3,3′-^13C]-α-ketoisovalerate sodium salts; Cambridge Isotope Laboratories; 250 mg L^−1 final concentrations) to culture medium 30 min before induction with IPTG (1 mM final concentration). Bacteria were collected after incubation at 25 °C for 8 h and washed with ice-cold phosphate-buffered saline (PBS). Washed cells were lysed by French press in ice-cold lysis buffer (50 mM Tris, pH 7.6, 300 mM NaCl, 10% glycerol (v/v), 5 mM β-mercaptoethanol (BME), 5 mM imidazole, 2 mM MgCl2, benzonase, and protease inhibitor cocktail), followed by an additional brief sonication step (3 × 15 s pulse sequence) on ice. This lysed solution was centrifuged (30,000×g for 30 min, two cycles) to remove cellular debris, then loaded onto a pre-washed Ni-NTA bead column (Qiagen) kept at 4 °C and washed with buffer (50 mM Tris, pH 7.6, 300 mM NaCl, 10% glycerol (v/v), 5 mM BME, 5 mM imidazole). The La antigen was eluted with an elution buffer (50 mM Tris, pH 7.6, 300 mM NaCl, 10% glycerol (v/v), 5 mM BME, imidazole gradient ranging from 5 mM to 0.5 M). […] Aliquots were flash-frozen in liquid N2 and stored at −80 °C until further use. Before use, aliquots of ~150 μM protein were incubated in the presence of 20 mM DTT at 37 °C for 1 h, then dialyzed (25 mM sodium phosphate buffer, pH 7.0 (no DTT)) in 16 h cycles at 4 °C with constant nitrogen bubbling and with gentle stirring, for three total buffer cycles.
For standard testing conditions, the [^1H-^13C]-HMQC spectra were acquired in 25 mM sodium phosphate buffer, pH 7.0, 10% D2O (v/v; CIL) ± 400 μM test compounds delivered from the aforementioned stock solutions, and ± 20 mM non-deuterated DTT. Final concentration of DMSO was 4.0% (v/v). Reaction solutions were mixed, then centrifuged for 5 min (1000×g) in non-binding 384-well microplates at RT, then incubated at 37 °C for 1 h and then 30 °C for 15 h before obtaining spectra. Samples were checked for evidence of gross precipitation. Data were recorded at 298 K on a Bruker UltraShield 700 MHz NMR spectrometer equipped with a Bruker 1.7 mm TCI Cryoprobe and Bruker SampleJet autosampler. Samples were tested at 50 μM protein concentrations using 16 scans, 2048 complex points in F2, and 80 points in F1 using standard protein [^1H-^13C]-HMQC and water suppression pulse sequences.
Data were analyzed in TopSpin™ 3.5 (Bruker). Reactions were normalized to equivalent DMSO controls. Non-reactive compounds were identified by the absence of chemical shifts or changes in peak intensities (^13C-methyl) ± 20 mM DTT.

[2] = Autofluorescence counter-screen; assay type: physicochemical; settings: autofluorescence at eight fluorophore settings; 32 nM-100 μM compound
Procedure: Selected test compounds were assessed for autofluorescence using an adaption of published procedures. […] Final concentration of DMSO was constant at 1.0% (v/v). Compounds and fluorophore standards were transferred as 10 mM DMSO stock solutions to 384-well black polystyrene microplates via Echo 550 dispenser. The plate arrangement was purposefully designed to minimize optical crosstalk by fluorophore standards. All measurements were performed in ALARM NMR buffer (25 mM sodium phosphate, pH 7.0) at 25 °C. Aliquots of 20 μL buffer were dispensed into microplate wells via ThermoFisher Multidrop dispenser. Compounds were shaken for 1 min on a plate shaker, centrifuged briefly for 1 min at 1000×g, then allowed to incubate at RT in buffer for 10 min before measuring fluorescence intensity on a SpectraMax M3 plate reader under reduced lighting. […] Bandwidth filters were set to default mode. Fluorescence intensity was measured for each test compound using each of the eight fluorophore standard settings. Fluorophores present on each plate were then used to construct normalized fluorescence dose-responses (“fluorophore-equivalent concentrations”, FEC). Fluorescence intensity for each test compound was converted to the appropriate FEC.

Absorbance spectra = assay type: physicochemical; settings: 25 mM sodium phosphate, pH 7.0
Procedure: Selected test compounds were assessed for absorption between 300 and 750 nm. Most compound absorption spectra were obtained at 100, 50, and 10 μM final compound concentrations in ALARM NMR buffer (25 mM sodium phosphate, pH 7.0). Final concentration of DMSO was constant at 2.0% (v/v). Compounds were allowed to incubate at RT in buffer for 10 min in UV-transparent polystyrene 384-well plates. Absorbance spectra were then obtained on a SpectraMax M3 or BMG Labtech CLARIOstar microplate reader at 25 °C. Significant absorbance was defined as molar absorptivity constants greater than 2000 M^−1 cm^−1 at wavelengths greater than 300 nm.

HEK293T and MCF7 cells [3] = assay: Membrane permeability (SYTOX green uptake); assay type: cell-based; settings: for membrane permeability: Sytox green dead-cell dye uptake
Procedure: (§1) For cell growth analyses, cells were seeded in 96-well plates, treated with compounds for the indicated times, and monitored over time in a live cell Incucyte™ ZOOM imager (Essen Biosciences). To label apoptotic and dead cells, caspase 3/7 activatable DEVD recognition motif NucView™ 488 DNA intercalating dye (1:1000 dilution, Essen Biosciences) and SYTOX™ green nucleic acid stain (1:1000 dilution, Invitrogen) were used respectively, following manufacturer instructions.

[4] = test system: caspase 3/7 activity in HEK293T and MCF7 cells; assay: Live-cell caspase 3/7 activity; assay type: cell-based; settings: 24 h after compound addition
Procedure: as §1

[5] = test system: H3K27ac levels in HEK293T and MCF7 cells; assay: Cellular H3K27ac western blot; assay type: cell-based; settings: 10 and 30 μM compound
Procedure: (§2) Cells were cultured in DMEM supplemented with 10% fetal bovine serum (Winsent), penicillin (100 U mL^−1), and streptomycin (100 µg mL^−1). Compounds dissolved in DMSO or matching DMSO-only controls were added to cells for indicated times. Compound effects in cells were determined as described[67] and are outlined below.
For western blot analyses, cells were lysed in lysis buffer (20 mM Tris–HCl, pH 8, 150 mM NaCl, 1 mM EDTA, 10 mM MgCl2, 0.5% Triton X-100 (v/v), 12.5 U mL^−1 benzonase (Sigma), complete EDTA-free protease inhibitor cocktail (Roche)). After 3 min incubation at RT, SDS was added to final 1% concentration (w/v). Total cell lysates were resolved in 4–12% Bis-Tris protein gels (Invitrogen) with MOPS buffer (Invitrogen) and transferred for 1.5 h (80 V) onto PVDF membrane (Millipore) in tris-glycine transfer buffer containing 20% methanol and 0.05% SDS. Blots were blocked for 1 h in blocking buffer (5% milk in 0.1% Tween 20/PBS) and incubated with respective primary antibodies: H3K27ac (1:1000, CST #8173), H3 (1:1000, Abcam #10799), p300 (1:2000, Bethyl #A300-358A), CBP (1:1000, Bethyl #A300-362A), actin (1:3000, Abcam #3280), α-tubulin (1:1000, 12G10 DHSB), and α-tubulin-K40ac (1:2000, Abcam #179484) in blocking buffer overnight at 4 °C. After five washes with 0.1% Tween 20/PBS, the blots were incubated with goat anti-rabbit IgG (IRDye 800-conjugated, LiCor #926-32211) and donkey anti-mouse IgG (IRDye 680-conjugated, LiCor #926-68072) antibodies (1:5000) in Odyssey Blocking Buffer (LiCor) for 1 h at RT and washed with 0.1% Tween 20/PBS. The signal was read on an Odyssey scanner (LiCor) at 800 and 700 nm. Representative uncropped images with molecular weight markers are provided (Supplementary Figs. 9, 12, 13).

HEK293T and MCF7 cells [6] = assay: Cell proliferation by cell confluence; assay type: cell-based; settings: 10 and 30 μM compound, 24 h
Procedure: as §2, §1

c1cc(SSc2ccns2)sn1 [Compound 2, NU-9056]
IC50 (p300/CBP; original report, 27 (Supplementary References)): 59 µM
AmpC aggregation counter-screen (AmpC β-lactamase): Detergent-insensitive

CCCCCCCCCCCCCCC=C(C(=O)OCC)C(=O)OCC [Compound 19, LoCAM]
Quenching counter-screen [1]: Negative
ALARM NMR, (-) DTT (human La antigen; 0 mM DTT): Negative
ALARM NMR, (+) DTT (human La antigen; DTT present): Negative
ALARM NMR interpretation (human La antigen; with and without DTT): Inert as tested
Fluorescence counter-screen [2]: Negative
Absorption max (nm) (Absorbance spectra): Nominal
Absorbance counter-screen (Absorbance spectra; 300-750 nm): Negative
% inhibition, p300/CBP (p300/CBP; @ 50 µM, ref 23 (Supplementary References)): 74%
AmpC counter-screen result (AmpC β-lactamase; detergent-sensitive modulation): likely aggregators
AmpC aggregation counter-screen (AmpC β-lactamase): Detergent-sensitive (Aggregators were defined as compounds with significant detergent-dependent changes in AmpC activity (t-test, adjusted P-value <0.05; mean differences greater than 30%))

O=C(O)CCSc1cc(NS(=O)(=O)c2ccc(Br)cc2)c2ccccc2c1O [Compound 24, JMC2015-6a]
cytotoxicity by membrane integrity studies (HEK293T and MCF7 cells [3]; 30 µM compound, MCF7 cells): cytotoxic
membrane permeability (HEK293T and MCF7 cells [3]): increased
caspase 3/7 activity [4]: induce; also recorded: increased

O=[N+]([O-])c1cc(Br)c2nsnc2c1Sc1ncnc2[nH]cnc12 [Compound 26, JMC2015-2a]
membrane permeability (HEK293T and MCF7 cells [3]): increased
caspase 3/7 activity [4]: induce; also recorded: increased

O=C1C(Cl)=C(NCCN2CCOCC2)C(=O)c2ncccc21 [NSC-663284]
membrane permeability (HEK293T and MCF7 cells [3]): increased
cellular H3K27ac levels [5]: decreased H3K27ac levels
caspase 3/7 activity [4]: induce; also recorded: increased

CC(=O)c1c(O)c(C)c(O)c(Cc2c(O)c3c(c(C(=O)/C=C/c4ccccc4)c2O)OC(C)(C)C=C3)c1O [Rottlerin]
cellular H3K27ac levels [5]: decreased H3K27ac levels
effect on cell proliferation (cell confluence) (HEK293T and MCF7 cells [6]): cytotoxic effects
effect on cell proliferation (cell confluence) (HEK293T and MCF7 cells [6]; listed as rottlerin): anti-proliferative effects
